Data on three compounds can be found in paper PMC6630443 (Viruses, 2019).

The test system of data set [1] is USUV. Kind of data set: microbe, parasite or virus in culture. The class given is cell-based. The conditions noted are these: Usutu virus, Vero, 48 h.
Data set [2] is described as follows: in vitro. The conditions noted are these: African green monkey.
Data set [3] deals with Vero cells.
The conditions of data set [4]: in vivo; cited from earlier work.
The subject of data set [5] is persistent USUV. The data set is classed as cell-based, Usutu virus.
In data set [6] the test system is persistent USUV. The data set is classed as cell-based, Usutu virus. The source holds these as a separate data set.

A word on the IC50: it is the concentration needed to halve the response being measured. The compound `O=c1[nH]cc(F)c(=O)[nH]1` [5-Fluorouracil, 2,4-dihydroxy-5-fluoropyrimidine] gave an IC50 in data set [1] of 71 µM. Further, in data set [2], the CC50 was determined as 66 µM. The Toxicity in words entry in data set [3] is listed as “elevated toxicity”.
`NC(=O)c1nc(F)cnc1O` [Favipiravir, 6-fluoro-3-hydroxy-2-pyrazinecarboxamide]: it took 315 µM to reach half-maximal inhibition in data set [1] (IC50). The Plasma concentration in data set [4] is 1500 to 2000 µM. Besides, the CC50 in data set [2] is more than 2000 µM. Besides, in data set [5], the “Day by which infectious virus in the cellular supernatant is completely extinct” value was not above 6 days; the “Decrease in virus titers and RNA levels in cellular supernatants” value is listed as ~ 5 log10. Also, the “Decrease in intracellular viral RNA levels” value in data set [6] was less than 2 log10.
`NC(=O)c1ncn([C@@H]2O[C@H](CO)[C@@H](O)[C@H]2O)n1` [Ribavirin, 1-(β-D-Ribofuranosyl)-1H-1,2,4-triazole-3-carboxamide] showed an IC50 in data set [1] of 163 µM. This compound also yielded a CC50 in data set [2] of more than 2000 µM. In data set [5], the “Day by which infectious virus in the cellular supernatant is completely extinct” value was not above 6 days; the “Decrease in virus titers and RNA levels in cellular supernatants” value is listed as ~ 5 log10. In data set [6], the “Decrease in intracellular viral RNA levels” value is given as less than 2 log10.
